Experimental data taken from patent publication US20080207700A1, “Amino Acid Salts of Rosiglitazone” (priority 2005, published 2008).

Test: physchem
Protocol: The following buffer solutions were used:
Thereafter, the suspensions were treated in an ultrasonic bath for 1 minute, the pH was checked and, where necessary, readjusted to the value given respectively below. Then, the solutions were 0.45 μm filtrated.
The absorption of thus produced solutions was measured at 345 nm.

Structure (SMILES) | solubility at 1 min (pH 11.8, aqueous buffer, thermodynamic from solid) | water solubility (pH 6)
CN(CCOc1ccc(CC2SC(=O)NC2=O)cc1)c1ccccn1 (centres unmarked) [Base, 5-(4-/2-(N-methyl-N-(2-pyridyl)amino)ethoxy/benzyl)-2,4-thiazolidinedione] | > 50 mg/mL | –
CN(CCOc1ccc(CC2SC(=O)NC2=O)cc1)c1ccccn1.O=C(O)/C=C\C(=O)O (centres unmarked) [Maleate, rosiglitazone maleate] | – | < 0.1 mg/mL
